This note sets out measurements from the supplement of paper PMC11208160.
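Also: IS621 bridge recombinase in Escherichia coli cells against a fixed T5 target plasmid.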

The nature of the series: recombinant UMI read abundance after kanamycin selection (control-corrected) (log10(CPM+1)); higher = more efficient recombination; extreme values may be limits of the assay; sequences stand for … in AGTGCAGAGAAAATCGGCCAGTTTTCTCTGCCTGCAGTCCGCATGCCGTGGGACCCCTTGGGTTCTAACCTGTTGCCTAGATTTATGCAGCGGACTGCCTTTCTCCCAAAGTGATAAACCGG…AGGTTGGTTTCACT; site = the 11-nt donor. Summed up:
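Sequencing read counts were converted to CPM, averaged over two replicates and scaled by control-derived factors. Results are given as log10(CPM+1). The reads covered the donor–target junction of recombinant UMIs from a pooled Escherichia coli screen of donor and donor-binding-loop pairs for the IS621 bridge recombinase.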
“CCATCTACATGGACCGGTTTTCCCGGTAATCCGTATTTGTG (site ACATCTACTCA)”: the “recombinant UMI read abundance (log10)” value was 0.0369.
Under “CCATCTACATGGACCGGTTTTCCCGGTAATCCGTATTTGTG (site CCATCTACTCA)” stands 0.0215; under “CCATCTACATGGACCGGTTTTCCCGGTAATCCGTATTTGTG (site GCATCTACTCA)”, 0.00588; under “CCATCTACATGGACCGGTTTTCCCGGTAATCCGTATTTGTG (site TCATCTACTCA)”, 0.
For “CCATCTGCATGGACCGGTTTTCCCGGTAATCCGTATTTGAA (site CCATCTGCTTT)”, the “recombinant UMI read abundance (log10)” value was determined as 1.91.
Take “CCATGGGCATGGACCGGTTTTCCCGGTAATCCGTATTTGAG (site CCATGGGCTCT)”: the “recombinant UMI read abundance (log10)” value came out at 0.633.
Under “CCATGGTCATGGACCGGTTTTCCCGGTAATCCGTATTTGAA (site CCATGGTCTTT)” stands 0.724.
Consider “CCATGTGCATGGACCGGTTTTCCCGGTAATCCGTATTTGAA (site CCATGTGCTTT)”, for which the “recombinant UMI read abundance (log10)” value came out at 0.336.
Take “CCCACCCCATGGACCGGTTTTCCCGGTAATCCGTATTTGGC (site CCCACCCCTGC)”: the “recombinant UMI read abundance (log10)” value is 0.
Consider “CCCACTACATGGACCGGTTTTCCCGGTAATCCGTATTTGTT (site CCCACTACTAA)”, for which the “recombinant UMI read abundance (log10)” value came to 0.141.
In the case of “CCCAGTCCATGGACCGGTTTTCCCGGTAATCCGTATTTGCA (site CCCAGTCCTTG)”, the “recombinant UMI read abundance (log10)” value worked out at 0.
Next, “CCCAGTCCATGGACCGGTTTTCCCGGTAATCCGTATTTGCA (site CCCCGTCCTTG)”: 0; “CCCAGTCCATGGACCGGTTTTCCCGGTAATCCGTATTTGCA (site CCCGGTCCTTG)”: 0.00873.
For “CCCAGTCCATGGACCGGTTTTCCCGGTAATCCGTATTTGCA (site CCCTGTCCTTG)”, the “recombinant UMI read abundance (log10)” value worked out at 0.0169.
Consider “CCCATATCATGGACCGGTTTTCCCGGTAATCCGTATTTGAT (site CCCATATCTAT)”, for which the “recombinant UMI read abundance (log10)” value is 0.
With “CCCATATCATGGACCGGTTTTCCCGGTAATCCGTATTTGTA (site CCCATATCTAA)”, the “recombinant UMI read abundance (log10)” value came to 0.0053.
On to “CCCATATCATGGACCGGTTTTCCCGGTAATCCGTATTTGTA (site CCCATATCTCA)”, for which the “recombinant UMI read abundance (log10)” value was 0.0171.
As to “CCCATATCATGGACCGGTTTTCCCGGTAATCCGTATTTGTA (site CCCATATCTGA)”, the “recombinant UMI read abundance (log10)” value was 0.
Turning to “CCCATATCATGGACCGGTTTTCCCGGTAATCCGTATTTGTA (site CCCATATCTTA)”, the “recombinant UMI read abundance (log10)” value was 0.903.
With “CCCATATCATGGACCGGTTTTCCCGGTAATCCGTATTTGTC (site ACCATATCTGA)”, the “recombinant UMI read abundance (log10)” value amounted to 0.
With “CCCATATCATGGACCGGTTTTCCCGGTAATCCGTATTTGTC (site CACATATCTGA)”, the “recombinant UMI read abundance (log10)” value came to 0.
In the case of “CCCATATCATGGACCGGTTTTCCCGGTAATCCGTATTTGTC (site CCAATATCTGA)”, the “recombinant UMI read abundance (log10)” value amounted to 0.
“CCCATATCATGGACCGGTTTTCCCGGTAATCCGTATTTGTC (site CCCAAATCTGA)”: the “recombinant UMI read abundance (log10)” value turned out to be 0.
For the sequence “CCCATATCATGGACCGGTTTTCCCGGTAATCCGTATTTGTC (site CCCACATCTGA)”, the “recombinant UMI read abundance (log10)” value is 0.
Turning to “CCCATATCATGGACCGGTTTTCCCGGTAATCCGTATTTGTC (site CCCAGATCTGA)”, the “recombinant UMI read abundance (log10)” value was 0.
For the sequence “CCCATATCATGGACCGGTTTTCCCGGTAATCCGTATTTGTC (site CCCATAACTGA)”, the “recombinant UMI read abundance (log10)” value was determined as 0.
As to “CCCATATCATGGACCGGTTTTCCCGGTAATCCGTATTTGTC (site CCCATACCTGA)”, the “recombinant UMI read abundance (log10)” value turned out to be 0.34.
Take “CCCATATCATGGACCGGTTTTCCCGGTAATCCGTATTTGTC (site CCCATAGCTGA)”: the “recombinant UMI read abundance (log10)” value came to 0.
“CCCATATCATGGACCGGTTTTCCCGGTAATCCGTATTTGTC (site CCCATATCTAA)”: the “recombinant UMI read abundance (log10)” value worked out at 0.00469.
Under “CCCATATCATGGACCGGTTTTCCCGGTAATCCGTATTTGTC (site CCCATATCTCA)” stands 0.
In the case of “CCCATATCATGGACCGGTTTTCCCGGTAATCCGTATTTGTC (site CCCATATCTGA)”, the “recombinant UMI read abundance (log10)” value was found to be 0.747.
As for “CCCATATCATGGACCGGTTTTCCCGGTAATCCGTATTTGTC (site CCCATATCTGC)”, the “recombinant UMI read abundance (log10)” value amounted to 0.
Turning to “CCCATATCATGGACCGGTTTTCCCGGTAATCCGTATTTGTC (site CCCATATCTGG)”, the “recombinant UMI read abundance (log10)” value was found to be 0.
Next, “CCCATATCATGGACCGGTTTTCCCGGTAATCCGTATTTGTC (site CCCATATCTGT)”: 0; “CCCATATCATGGACCGGTTTTCCCGGTAATCCGTATTTGTC (site CCCATATCTTA)”: 0; “CCCATATCATGGACCGGTTTTCCCGGTAATCCGTATTTGTC (site CCCATCTCTGA)”: 0.
Under “CCCATATCATGGACCGGTTTTCCCGGTAATCCGTATTTGTC (site CCCATGTCTGA)” stands 0; under “CCCATATCATGGACCGGTTTTCCCGGTAATCCGTATTTGTC (site CCCATTTCTGA)”, 0.731; under “CCCATATCATGGACCGGTTTTCCCGGTAATCCGTATTTGTC (site CCCCTATCTGA)”, 0.
Take “CCCATATCATGGACCGGTTTTCCCGGTAATCCGTATTTGTC (site CCCGTATCTGA)”: the “recombinant UMI read abundance (log10)” value was 0.
With “CCCATATCATGGACCGGTTTTCCCGGTAATCCGTATTTGTC (site CCCTTATCTGA)”, the “recombinant UMI read abundance (log10)” value stood at 0.395.
Under “CCCATATCATGGACCGGTTTTCCCGGTAATCCGTATTTGTC (site CCGATATCTGA)” stands 0; under “CCCATATCATGGACCGGTTTTCCCGGTAATCCGTATTTGTC (site CCTATATCTGA)”, 0; under “CCCATATCATGGACCGGTTTTCCCGGTAATCCGTATTTGTC (site CGCATATCTGA)”, 0.
With “CCCATATCATGGACCGGTTTTCCCGGTAATCCGTATTTGTC (site CTCATATCTGA)”, the “recombinant UMI read abundance (log10)” value worked out at 0.
On to “CCCATATCATGGACCGGTTTTCCCGGTAATCCGTATTTGTC (site GCCATATCTGA)”, for which the “recombinant UMI read abundance (log10)” value is 0.
Under “CCCATATCATGGACCGGTTTTCCCGGTAATCCGTATTTGTC (site TCCATATCTGA)” stands 0; under “CCCCAAACATGGACCGGTTTTCCCGGTAATCCGTATTTGTA (site CCCCAAACTTA)”, 0.19; under “CCCCAAACATGGACCGGTTTTCCCGGTAATCCGTATTTGTA (site CCCCACACTTA)”, 0.0105.
Turning to “CCCCAAACATGGACCGGTTTTCCCGGTAATCCGTATTTGTA (site CCCCAGACTTA)”, the “recombinant UMI read abundance (log10)” value stood at 0.00667.
Under “CCCCAAACATGGACCGGTTTTCCCGGTAATCCGTATTTGTA (site CCCCATACTTA)” stands 0.102.
Next, “CCCCACCCATGGACCGGTTTTCCCGGTAATCCGTATTTGTA (site CCCCACACTTA)”: 0.0263.
On to “CCCCACCCATGGACCGGTTTTCCCGGTAATCCGTATTTGTA (site CCCCACCCTTA)”, for which the “recombinant UMI read abundance (log10)” value amounted to 0.00842.
With “CCCCACCCATGGACCGGTTTTCCCGGTAATCCGTATTTGTA (site CCCCACGCTTA)”, the “recombinant UMI read abundance (log10)” value worked out at 0.0484.
Consider “CCCCACCCATGGACCGGTTTTCCCGGTAATCCGTATTTGTA (site CCCCACTCTTA)”, for which the “recombinant UMI read abundance (log10)” value amounted to 1.78.
For “CCCCACTCATGGACCGGTTTTCCCGGTAATCCGTATTTGAC (site CCCCACTCTGT)”, the “recombinant UMI read abundance (log10)” value was determined as 1.04.
Under “CCCCATACATGGACCGGTTTTCCCGGTAATCCGTATTTGTA (site CCCCAAACTTA)” stands 0; under “CCCCATACATGGACCGGTTTTCCCGGTAATCCGTATTTGTA (site CCCCACACTTA)”, 0.0183.
As for “CCCCATACATGGACCGGTTTTCCCGGTAATCCGTATTTGTA (site CCCCAGACTTA)”, the “recombinant UMI read abundance (log10)” value was 0.
Next, “CCCCATACATGGACCGGTTTTCCCGGTAATCCGTATTTGTA (site CCCCATACTTA)”: 0.512.
As for “CCCCGTCCATGGACCGGTTTTCCCGGTAATCCGTATTTGCA (site CCCAGTCCTTG)”, the “recombinant UMI read abundance (log10)” value was determined as 0.
Next, “CCCCGTCCATGGACCGGTTTTCCCGGTAATCCGTATTTGCA (site CCCCGTCCTTG)”: 0.809; “CCCCGTCCATGGACCGGTTTTCCCGGTAATCCGTATTTGCA (site CCCGGTCCTTG)”: 0.0123; “CCCCGTCCATGGACCGGTTTTCCCGGTAATCCGTATTTGCA (site CCCTGTCCTTG)”: 0.00689.
Next, “CCCCTCCCATGGACCGGTTTTCCCGGTAATCCGTATTTGCG (site CCCCTCCCTCG)”: 0.014; “CCCGACACATGGACCGGTTTTCCCGGTAATCCGTATTTGTA (site CCCAACACTTA)”: 0.221.
On to “CCCGACACATGGACCGGTTTTCCCGGTAATCCGTATTTGTA (site CCCCACACTTA)”, for which the “recombinant UMI read abundance (log10)” value was determined as 0.00237.
In the case of “CCCGACACATGGACCGGTTTTCCCGGTAATCCGTATTTGTA (site CCCGACACTTA)”, the “recombinant UMI read abundance (log10)” value was 0.974.
